Assay results from patent US8221736B2, “Semiochemical” (Rothamsted Research Limited, priority 1999, dated 2012).
Marks after values point to notes of the source that are not given here.

What was measured:
Assay type in all cases: in vivo
[1] = test system: lettuce aphid Nasonovia ribis-nigri; test: 4-way olfactometer behavioural assay with alate lettuce aphids; conditions: 1 μg in hexane on filter paper, 10 min, P<0.05
Description: Behavioural assays were done in a Perspex™ olfactometer similar to that described in J. Entomol. Scand. 1, 63-73 (1970) (Pettersson), with a weak airstream directed towards the centre from each of 4 side arms. The test compound (1 μg) in hexane (10 μl) was placed on filter paper (Whatman No. 1) at the end of one of the side arms, with hexane alone used as a control in the other arms. One alate virginopara of N. ribis-nigri was placed in the centre of the arena and its movements observed over 10 min. The apparatus, maintained at 24° C., was lit from above by fluorescent tubing and was rotated 90° every 2.5 min to avoid any directional bias. The experiment was replicated 6 times and results analysed by Student's t-test.

[2] = test system: hop aphid, Phorodon humuli; test: Preliminary field trials, yellow water traps, hop aphid summer morphs; conditions: slow release 2.05 μg/day/trap; P<0.04
pollen beetles = test: Field-trapping experiments with yellow bowl traps against pollen beetles
Description: Field-trapping experiments were also conducted using cis-jasmone against pollen beetles. Attractive yellow bowl traps, at 1 m height and 10 m spacing, were placed in a Latin square design (one row of the Latin square=one replicate; traps are re-randomized to the next row of the square when a mean of 10 beetles are caught per trap). Catches in an unbaited bowl were compared with those bowls baited with cis-jasmone released at two different rates. Analysis was by ANOVA, on transformed total catch data. The transformation used was x=log10(y+1), where x and y are the transformed and untransformed data, respectively. Transformed means were compared using the LSD (least […] difference) test and transformed back to give the results as set out in Table 1.
P<0.05. Numbers in brackets are the percent reduction in trap catch compared with the unbaited trap.

[3] = test system: aphid parasitoid Aphidius ervi; test: Wind tunnel single choice test of A. ervi with synthetic compounds on filter paper; conditions: 10 μg on filter paper, hexane control 26.7
Excerpt: Since semiochemicals acting as repellents or inhibitors of host attractancy for herbivorous insects are often involved in predation or parasitism, the activity of cis-jasmone was also investigated at higher trophic levels. […] These experiments indicate a behavioural role for cis-jasmone in influencing interactions between plants, herbivorous insects and their predators and parasitoids. Naive female A. ervi were flown in a wind tunnel, as described in J. Chem. Ecol. 16, 381-396 (1996) (Poppy et al.). The parasitoids were released 25 cm downwind (single choice tests) or 40 cm downwind (dual choice test) of the target, which was either a plant or a synthetic compound (10 μg in 10 μl hexane) placed on a 2×1 cm strip of filter paper (Whatman No. 1) surrounded by a ring of green crêpe paper. The proportions of parasitoids responding with an oriented flight to the synthetic chemicals were calculated each day on 3 separate days. These values were then subjected to a logit transformation to normalize the data before being analysed by ANOVA followed by Tukey post-hoc tests. The number of parasitoids orienting upwind to the single plant target were recorded and subjected to a χ^2 contingency test (Pearson method on Genstat—see Genstat 5 Committee. Genstat 5 Reference Manual, Release 3 (Clarendon Press, Oxford, 1993)) to determine whether an orienting response was linked to the type of plant treatment. The numbers orienting to each plant in the dual choice test were analysed by a χ^2 to determine whether one plant was more attractive than the other.

[4] = test system: D251 sequence in Vicia faba plants; test: Differential display and northern blot of gene-specific sequence D251; conditions: northern blot, versus air
Description: Total RNA was isolated from stem or leaf tissue of plants exposed to air, methyl jasmonate or cis-jasmone. 10 μg RNA per sample was loaded and separated on a formaldehyde gel (Panel A). The samples were then transferred to a nylon membrane and probed with the D251 sequence (Panel B). Lane 1=air treatment (control); lane 2=cis-jasmone treatment; lane 3=methyl jasmonate treatment. In the case of RNA isolated from leaf tissue, only cis-jasmone treatment results in upregulation. In order to determine if cis-jasmone was capable of inducing alterations in plant gene expression, the sensitive technique of differential display was carried out on RNA extracted from plants which had been exposed to air, methyl jasmonate or cis-jasmone. […] To confirm this observation, bands of interest were recovered by excision from the dried gel and re-amplified with the appropriate pair of oligonucleotide primers. The resulting PCR products were cloned and sequenced to confirm the homogeneous nature of the amplified product. These sequences were then used to probe RNA isolated from control or treated V. faba plants. […] It is important to note that the nature of the differential display technique generates short gene-specific probes, containing mainly 3′ untranslated regions of transcribed sequences, and therefore the functional part of the differentially expressed gene is unknown. Thus, using differential display and confirmatory northern blotting, we have shown that methyl jasmonate and cis-jasmone have apparently distinct effects on plant gene expression. […] Thus, the two compounds have distinct effect on plant gene expression and the response to these signalling compounds may be tissue-specific.

Structure (SMILES): CC/C=C\CC1=C(C)CCC1=O [cis-jasmone]
- mean number of entries into the treated arm ([1]; 6 replicates, control arms 4.3±0.58): 2.0±0.58
- mean time spent in the treated arm ([1]; control arms 2.1±0.36 minutes): 0.5 ± 0.16 min
- reduction of catches in water traps with visual (yellow) attractancy [2]: 40%
- percent reduction in trap catch compared with the unbaited trap (pollen beetles; Analysis A, 2.2 mg/day): (44%)
- Back-transformed mean catch per replicate (pollen beetles; Analysis A, 2.2 mg/day, unbaited trap 127.3): 70.9^b
- percent reduction in trap catch compared with the unbaited trap (pollen beetles; Analysis A, 25 mg/day): (59%)
- Back-transformed mean catch per replicate (pollen beetles; Analysis A, 25 mg/day, unbaited trap 127.3): 51.7^c
- percent reduction in trap catch compared with the unbaited trap (pollen beetles; Experiment A, 2.2 mg/day): (21%)
- Back-transformed mean catch per replicate (pollen beetles; Experiment A, 2.2 mg/day, unbaited trap 48.3): 38.2^ab
- percent reduction in trap catch compared with the unbaited trap (pollen beetles; Experiment A, 25 mg/day): (35%)
- Back-transformed mean catch per replicate (pollen beetles; Experiment A, 25 mg/day, unbaited trap 48.3): 31.4^b
- percent reduction in trap catch compared with the unbaited trap (pollen beetles; Experiment B, 2.2 mg/day): (60%)
- Back-transformed mean catch per replicate (pollen beetles; Experiment B, 2.2 mg/day, unbaited trap 333.1): 130.7^bc
- percent reduction in trap catch compared with the unbaited trap (pollen beetles; Experiment B, 25 mg/day): (75%)
- Back-transformed mean catch per replicate (pollen beetles; Experiment B, 25 mg/day, unbaited trap 333.1): 84.6^c
- % showing oriented flight [3]: 53.1^a %
- expression of D251 sequence in leaf tissue ([4]; RNA from leaf tissue of plants exposed to vapour): upregulated
- expression of D251 sequence in stem tissue ([4]; RNA from stem tissue of plants exposed to vapour): upregulated to a similar level
